According to the supplement of paper PMC10307832:

Experiments:
Assay in all cases: relative viability (nuclei count vs DMSO), 5 days (fraction); higher = more cells survive
Crizotinib + Trametinib = compound: C[C@@H](Oc1cc(-c2cnn(C3CCNCC3)c2)cnc1N)c1c(Cl)ccc(F)c1Cl [Crizotinib] + CC(=O)Nc1cccc(-n2c(=O)n(C3CC3)c(=O)c3c(Nc4ccc(I)cc4F)n(C)c(=O)c(C)c32)c1 [Trametinib] (partner 0.02 µM)
How it was run: (§1)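 After 5 days of treatment, lung cancer cells in 1536-well plates were fixed and stained in a single step (final 0.05% Triton X-100, 1% formaldehyde, 1 ug/ml Hoechst) and their nuclei counted on 4× images. Treatment had been applied by pin tool the day after seeding as one drug alone or as a fixed anchor-drug dose with five library-drug doses (not always all listed) in √10 steps. Relative viability is the nuclei count of treated wells divided by that of vehicle wells, and values are medians of duplicate plates.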

Crizotinib + Alpelisib = compound: C[C@@H](Oc1cc(-c2cnn(C3CCNCC3)c2)cnc1N)c1c(Cl)ccc(F)c1Cl [Crizotinib] + Cc1nc(NC(=O)N2CCC[C@H]2C(N)=O)sc1-c1ccnc(C(C)(C)C(F)(F)F)c1 [Alpelisib] (partner 2 µM)
How it was run: as §1

Olaparib + Trametinib = compound: O=C(c1cc(Cc2n[nH]c(=O)c3ccccc23)ccc1F)N1CCN(C(=O)C2CC2)CC1 [Olaparib] + CC(=O)Nc1cccc(-n2c(=O)n(C3CC3)c(=O)c3c(Nc4ccc(I)cc4F)n(C)c(=O)c(C)c32)c1 [Trametinib] (partner 0.02 µM)
How it was run: as §1

Olaparib + Palbociclib = compound: O=C(c1cc(Cc2n[nH]c(=O)c3ccccc23)ccc1F)N1CCN(C(=O)C2CC2)CC1 [Olaparib] + CC(=O)c1c(C)c2cnc(Nc3ccc(N4CCNCC4)cn3)nc2n(C2CCCC2)c1=O [Palbociclib] (partner 0.5 µM)
How it was run: as §1

Cell Line	relative viability (Crizotinib + Trametinib; first compound 0.01 µM)	relative viability (Crizotinib + Trametinib; first compound 0.03162 µM)	relative viability (Crizotinib + Trametinib; first compound 0.1 µM)	relative viability (Crizotinib + Trametinib; first compound 0.3162 µM)	relative viability (Crizotinib + Trametinib; first compound 1 µM)	relative viability (Crizotinib + Alpelisib; first compound 0.01 µM)	relative viability (Crizotinib + Alpelisib; first compound 0.03162 µM)	relative viability (Crizotinib + Alpelisib; first compound 0.1 µM)	relative viability (Crizotinib + Alpelisib; first compound 0.3162 µM)	relative viability (Crizotinib + Alpelisib; first compound 1 µM)	relative viability (Olaparib + Trametinib; first compound 0.08 µM)	relative viability (Olaparib + Trametinib; first compound 0.253 µM)	relative viability (Olaparib + Trametinib; first compound 2.53 µM)	relative viability (Olaparib + Trametinib; first compound 8 µM)	relative viability (Olaparib + Palbociclib; first compound 0.08 µM)	relative viability (Olaparib + Palbociclib; first compound 0.253 µM)	relative viability (Olaparib + Palbociclib; first compound 2.53 µM)	relative viability (Olaparib + Palbociclib; first compound 8 µM)
LXF-289	0.666	0.668	0.726	0.57	0.693	0.968	1.07	1.01	0.987	1.03	0.737	0.674	0.771	0.847	0.635	0.6	0.684	0.689
NCI-H23	0.341	0.367	0.329	–	0.393	0.691	0.662	0.572	–	0.724	0.402	0.439	0.385	0.368	0.586	0.542	0.475	0.5
NCI-H322M	–	0.507	0.482	0.493	0.554	0.791	–	0.773	0.916	0.789	0.496	0.57	0.577	0.523	0.468	0.408	0.515	0.462
NCI-H358	0.108	0.151	0.131	0.112	0.135	0.81	0.802	0.798	0.852	0.759	0.13	0.147	0.145	0.12	0.124	0.137	0.125	0.14
NCI-H441	0.405	0.475	0.59	0.382	0.446	0.795	0.648	0.859	–	0.711	0.548	0.442	0.382	0.447	0.268	0.257	0.234	0.243
NCI-H460	0.212	0.154	0.211	0.165	0.149	0.495	0.404	0.46	0.504	0.442	0.115	0.0823	0.121	0.0533	0.0979	0.0831	0.0723	0.0812
NCI-H520	0.603	0.744	0.767	0.568	0.668	0.726	0.92	0.891	1.07	0.962	0.794	0.527	0.506	0.311	0.239	0.207	0.179	0.152
NCI-H647	0.43	0.575	0.435	0.436	0.559	1.08	1.16	1.02	0.933	1.01	0.471	0.424	0.54	0.523	0.431	0.331	0.321	0.381
NCI-H650	0.955	1.04	–	–	–	0.955	1.2	1.06	1.06	1.17	0.893	0.939	0.915	0.782	0.324	0.312	0.311	0.227
NCI-H661	0.536	0.563	0.536	0.61	0.549	0.665	0.684	0.615	0.699	0.725	0.602	0.5	0.569	0.525	0.384	0.383	0.389	0.362
NCI-H727	0.356	0.427	0.344	0.434	0.381	0.655	0.575	0.583	0.674	0.685	0.415	0.363	0.37	0.349	0.655	0.601	0.618	0.561
NCI-H838	0.474	0.513	0.576	0.515	0.498	0.997	–	1.03	–	0.964	0.585	0.493	0.536	0.547	0.269	0.196	0.198	0.247
NCI-H1355	0.416	0.409	0.45	0.396	0.404	0.832	0.806	0.857	0.849	0.878	0.385	0.433	0.481	0.476	0.364	0.422	0.407	0.414
NCI-H1395	0.951	1.05	1.04	0.971	1.1	0.996	0.928	1.09	1.11	1.26	1.11	0.876	0.852	0.629	0.649	0.611	0.6	0.499
NCI-H1437	0.542	0.577	0.544	0.457	0.608	0.869	0.973	0.925	0.938	0.907	0.535	0.469	0.503	0.504	0.32	0.303	0.327	0.353
NCI-H1651	0.802	0.832	0.822	0.792	0.803	0.823	0.933	0.858	–	0.965	0.849	0.75	0.642	0.504	0.547	0.494	0.493	0.384
NCI-H1666	0.838	0.865	0.866	–	0.902	0.964	–	1	0.984	0.959	0.872	0.95	0.791	0.765	0.669	0.717	0.677	0.609
NCI-H1734	0.684	0.621	0.629	–	0.67	0.659	0.646	0.661	–	0.633	0.688	0.583	0.718	0.565	0.337	0.327	0.29	0.304
